Experimental data as given in US8017585B2, “CXCR4 antagonist and use thereof” (priority 2002, dated 2011).
pIC50: −log10 of the molar value. Bridge positions count the residues as written; N and C are the ends. Square brackets hold non-standard residues; d marks the D form. Peptide text beside a SMILES is read from it. * marks the point of attachment. 2Nal = N[C@@H](Cc1ccc2ccccc2c1)C(=O)O; Benzoyl(4-F) = O=C(c1ccc(F)cc1)*; Cit = NC(=O)NCCC[C@H](N)C(=O)O

Key:
CXCR4 receptor = target: T1, CXCR4 receptor (Homo sapiens, UniProt P61073); assay: Inhibition of 125I-CXCL12 binding to CXCR4 receptor on Jurkat cells; conditions: Table 1, 125I-CXCL12, 1 hour at room temperature, compounds as acetate salt, read-out: IC50 (nM), inhibitory activity against CXCL12 binding to CXCR4 receptor
T1 construct: 50 μL of Jurkat human T-cell leukemia cells (6×10^6 cells/mL) suspended in buffer; endogenous in cells; host or cells: Jurkat human T-cell leukemia cells
Method: After reaction, suction was made toward the reaction solution by 96 well GF/C filter plate, and each well's radioactivity was measured by top count. As the radioactivity index of 100% when the test compound was not added, and 0% when 100 nM of non-radioisotope-labeled CXCL12 was added, the inhibitory activity of each test compound was measured.

[1] = system: human breast cancer MDA-MB-231 cells; assay: Inhibition of CXCL12-induced breast cancer cell migration (Transwell); assay type: cell-based; conditions: 10 nM of the antagonist; 100 nM CXCL12; 15 hours
Method: Transwell filter (polycarbonate filter, 8 μm diameter, Costar Company) was treated at 37° C. for 6 hours in 10 μg/mL fibronectin solution and air-dried. 100 nM of CXCL12 (R&D System Company) and 600 μL/well of buffer-A (0.1% bovine serum albumin, DMEM (GibcoBRL) containing 12 mM HEPES) containing the test compound were added to the lower chamber of the Transwell. The test compound and human breast cancer MDA-MB-231 cells (purchased from American Tissue Culture Collection), and 100 μL/well of buffer A containing 2×10^6 cells/mL were added to the upper chamber. […] Cutting off the filter part, adding 0.1 M sodium citrate/50% ethanol solution, and eluting crystal violet absorption at 550 nm was measured. […]
After 15 hours' incubation at 37° C. in 5% CO2 incubator, the upper surface of the filter was wiped and the cell was removed, and then the cell on the lower surface of the filter was fixed and stained with 25% methanol solution containing 0.5% crystal violet (Wako Pure Chemical Ind.), washed by distilled water and air-dried. Cutting off the filter part, adding 0.1 M sodium citrate/50% ethanol solution, and eluting crystal violet absorption at 550 nm was measured. […]

[2] = system: mouse collagen-induced arthritis; assay: Mouse collagen-induced arthritis; assay type: in vivo, DBA/1JN mouse; conditions: 120 μg/day, Alzet osmotic pump, 2 weeks
Method: FK-506 was purified by a known method (Kino T. et al., J. Antibiot., 1987 40(9): 1249-55). […] For 2 weeks after the additional immunization, body weights and hindlimb thickness were measured and arthritis scoring was made. Arthritis scores were scored at 0-3 points of each limb, and evaluated by the total of the same (12 points being the full points; 0, normal; 1, mild swelling or swelling of a single digit; 2, moderate swelling or swelling of plural digits; 3, severe swelling). Two weeks after the immunization, four limbs and sera were picked. After coat blocking bovine type II collagen (10 μg/mL PBS solution) on the immunoplate, 100 μL of 1000 times diluted mouse serum was added, and kept at room temperature for 2 hours. After cleansing, anti-mouse IgG2a antibody (1000 times dilution) was added. After cleansing, TMB was added, kept at room temperature for 30 minutes, H2SO4 of equal amount was added, and A450 nm was measured. Indomethacin (1 mg/kg), methotrexate (3 mg/kg) and FK-506 (10 mg/kg) were suspended to 0.5% methyl cellulose, and orally administered every day for 2 weeks from the day of the additional immunization at the dose of 0.1 mL/10 g body weight. 0.5% methyl cellulose solution of the equal dose was orally administered to the control group. 4Fbenzoyl-TN14003 was dissolved to PBS, and continuously administered using Alzet osmotic pumps (Alza, 0.5 μL/hr 2 weeks). The osmotic pumps were implanted intradermally to the backs of the mice under ether anesthesia on the day before the additional immunization. As the control, pumps injected with PBS were similarly implanted. Evaluation of each drug was made for the value obtained 2 weeks after the additional immunization. Data were expressed as mean value±standard margin of error (n=8-12). Comparison between 2 groups was made by Student's t-test, p≦0.05 was valued as significant. Multiple comparison was made by Dunnett test, p≦0.05 was valued as significant.

[3] = system: Jurkat human T lymphocyte cell lines; conditions: read-out: IC50 value, inhibition of SDF-1α-induced Jurkat cell migration; SDF-1α 1 ng/mL; 4 hours
Method: RPMI-1640 and fetal calf serum (FCS) was purchased from BioWhittaker, penicillin-streptomycin solution, RPMI-1640 (without phenol red) and HEPES from Invitrogen, BSA from Sigma, and, human SDF-1α (CXCL12) from Genzyme. Jurkat human T lymphocyte cell lines were purchased from ATCC and incubated in RPMI-1640 10% FCS.
Using 24-wells Transwell (Costar, polycarbonate membrane, pore size 5 μm), migrating reaction was performed. 600 μL of SDF-1α (final concentration 1 ng/mL) was added to the lower layer of Transwell, 5×10^5 cells (200 μL) was added to the insert, and was reacted at 37° C. for 4 hours. The cells were pre-incubated with drugs at 37° C. for 30 minutes. The migrating reaction was made in RPMI-1640 culture media containing 20 mmol/L HEPES, 0.5% BSA. The cells migrated to the lower layer were recovered, and the number of the cells was counted by Coulter Counter. The inhibitory rate (%) against the migration by the drug of each concentration was calculated by the following formula, and IC50 value was calculated from such inhibitory rate.

T1 sequence (P61073 whole entry): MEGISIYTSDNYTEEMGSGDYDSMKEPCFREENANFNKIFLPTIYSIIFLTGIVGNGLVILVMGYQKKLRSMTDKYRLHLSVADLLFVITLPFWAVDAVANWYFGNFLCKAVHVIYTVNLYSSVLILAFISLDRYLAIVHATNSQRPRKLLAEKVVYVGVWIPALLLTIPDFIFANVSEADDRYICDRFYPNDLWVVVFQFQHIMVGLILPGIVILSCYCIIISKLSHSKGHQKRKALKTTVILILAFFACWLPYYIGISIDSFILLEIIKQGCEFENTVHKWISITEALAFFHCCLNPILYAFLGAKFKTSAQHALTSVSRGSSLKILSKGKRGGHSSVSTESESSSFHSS

N=C(N)NCCC[C@H](NC(=O)[C@@H]1CSSC[C@H](NC(=O)[C@H](Cc2ccc3ccccc3c2)NC(=O)[C@H](CCCNC(=N)N)NC(=O)[C@H](CCCNC(=N)N)NC(=O)c2ccc(F)cc2)C(=O)N[C@@H](Cc2ccc(O)cc2)C(=O)N[C@@H](CCCNC(N)=O)C(=O)N[C@@H](CCCCN)C(=O)N[C@H](CCCCN)C(=O)N2CCC[C@H]2C(=O)N[C@@H](Cc2ccc(O)cc2)C(=O)N[C@@H](CCCNC(=N)N)C(=O)N[C@@H](CCCNC(N)=O)C(=O)N1)C(N)=O [4F-benzoyl-TN14003, 4F-benzoyl-Arg-Arg-Nal-Cys-Tyr-Cit-Lys-DLys-Pro-Tyr-Arg-Cit-Cys-Arg-NH2] ({Benzoyl(4-F)}-RR[2Nal]CY[Cit]K[dK]PYR[Cit]CR-NH2; disulfide 4-13)
IC50 (CXCR4 receptor): 0.99 nM | CXCL12-induced migration of MDA-MB-231 cells [1]: inhibited | arthritis score [2]: significant inhibitory activity | body weight loss [2]: significant inhibitory activity | hindlimb swelling [2]: significant inhibitory activity | increase of anti-type II collagen specific IgG2a antibody value [2]: inhibitory tendency | pIC50 [3]: 9.19
